The structures appear in SMILES notation. Several values for one entry are separate records, joined by “and”; a condition that tells them apart may be missing. Equal values may be shown once.

The data set is described as follows: solvent given as SMILES.

Compound `c1ccc(N(c2ccccc2)c2ccc(-c3nc(-c4ccc(N(c5ccccc5)c5ccccc5)cc4)c4ccccc4n3)cc2)cc1` registered an absorption maximum (in ClCCl) of 370 nm.
With `CC(C)(C)c1cc(C(C)(C)C)c2oc3c(c2c1)C=CN1C(=O)C2=C4c5oc6c(C(C)(C)C)cc(C(C)(C)C)cc6c5C=CN4C(=O)C2=C31`, the absorption maximum reads like this: (in CN(C)C=O) 645 nm; (in ClC(Cl)Cl) 643 nm.
In the case of `CC1=N/C(=C\c2ccccc2N)C(=O)N1C`, the absorption maximum reads like this: (in C1CCCCC1) 427 nm; (in C1CCOC1) 430 nm; (in CC#N) 422 nm; (in CO) 424 nm; (in CS(C)=O) 436 nm; (in ClCCl) 422 nm. This compound registered an absorption maximum (in O) of 390 nm.
With `O=Cc1ccc(/C=C/c2nc(N3CCOCC3)c3c([n+]2[O-])CCCC3)cc1`, the absorption maximum (in ClCCl) was 418 nm.
`CCCCCCCCCCCCCCCCCCOc1ccc(C#Cc2cc3nc4c(OCCCCCCCCCCCC)cc5c6cc(OCCCCCCCCCCCC)c(OCCCCCCCCCCCC)cc6c6cc(OCCCCCCCCCCCC)c(OCCCCCCCCCCCC)cc6c5c4nc3cc2C#Cc2ccc(OCCCCCCCCCCCCCCCCCC)cc2)cc1` showed an absorption maximum (in ClC(Cl)Cl) of 487 nm.
`Cc1ccc(C2=C3C=c4c(oc5ccccc45)=[N+]3[B-](F)(F)n3c2cc2c4ccccc4oc23)cc1` yielded an absorption maximum (in C1CCCCC1) of 584.5 nm; an absorption maximum (in C1CCOC1) of 581.5 nm; an absorption maximum (in CC#N) of 578 nm; an absorption maximum (in CCOC(C)=O) of 579.5 nm; an absorption maximum (in CN(C)C=O) of 581.5 nm; an absorption maximum (in CO) of 578 nm. Besides, the absorption maximum was 588 nm (in Cc1ccccc1); 584 nm and 583 nm (in ClCCl).
Take `Cc1ccc(C2=C3C=CC(=[N+](C)C)C=C3[Si](C)(C)c3cc(N(C)C)ccc32)c(C)c1`: the absorption maximum (in O) turned out to be 646 nm.
`ClC1=CN2C[n+]3cc(Cl)ccc3N=C2C=C1` had an absorption maximum (in CO) of 433 nm.
Take `Cc1cc(C#Cc2ccccc2)c2ccc3c(C#Cc4ccccc4)cc(C#Cc4ccccc4)c4ccc1c2c43`: the absorption maximum by setting is: (in CS(C)=O) 451 nm; (in ClC(Cl)(Cl)Cl) 445 nm.
As to `CCN(CC)c1cccc2c1ccc1c(=O)oc(-c3ccc(C(F)(F)F)cc3)cc12`, the absorption maximum is reported as 390 nm (in CC(C)=O); 388 nm (in CCCCCC); 393 nm (in CCCCCCCCO); 392 nm (in CCCCO); 391 nm (in CCCO); 392 nm (in CCO). In addition, the absorption maximum worked out at 389 nm (in CCOC(C)=O), 394 nm (in CN(C)C=O) and 391 nm (in CO).
For `COc1nc(Nc2ccc3ccc4cccc5ccc2c3c45)nc(OC)n1`, the absorption maximum runs as follows: (in CC#N) 340 nm; (in CCCCOCCCC) 341 nm; (in CO) 340 nm.
Under “in CCO”, `CCCCOc1c(C=C2C=Cc3ccccc3N2C)c(=O)c1=O` had an absorption maximum of 465 nm.
`O=C(O)CCCc1cc2ccc3cccc4ccc(c1)c2c34` gave an absorption maximum (in CO) of 374 nm.
For `O=c1c2cc(F)c(O)cc2oc2cc(N3CCCCC3)c(F)cc12`, the absorption maximum (in CCO) was found to be 373 nm.
Regarding `CCOC(=O)c1cc(C(=O)OCC)c2cc(C)ccc2n1`, the absorption maximum (in CCO) came out at 330 nm.
Regarding `Cc1ccc2c(c1)c1cc(C)ccc1n2-c1cccc(-n2c3ccc(C)cc3c3cc(C)ccc32)c1C#N`, the absorption maximum (in Cc1ccccc1) worked out at 368 nm.
The compound `CCOC(=O)CCCCCn1c2ccccc2c(=O)c2cc(I)ccc21` gave an absorption maximum (in CO) of 414 nm.
Still for that read-out and setting: under `CCOC(=O)CCCCCn1c2ccccc2c(=O)c2cc3c(cc21)c(=O)c1ccccc1n3CC` stands 528 nm.
Take `COc1ccc(-c2cc(-c3ccc(C#N)cc3)nn2C)cc1`: the absorption maximum (in ClCCl) came out at 281 nm.
`c1ccc(-c2nc(-c3ccccc3)nc(-c3ccc(-c4ccc(N5c6ccccc6[Si](c6ccccc6)(c6ccccc6)c6ccccc65)cc4)cc3)n2)cc1`: the absorption maximum (in Cc1ccccc1) is listed as 308 nm.
`Nc1cc2oc3cc(O)c(F)cc3c(=O)c2cc1F` displayed an absorption maximum (in CCO) of 366 nm.
For the compound `C(#Cc1nc2ccccc2s1)c1ccc(N(c2ccc(C#Cc3nc4ccccc4s3)cc2)c2ccc(C#Cc3nc4ccccc4s3)cc2)cc1`, the absorption maximum (in Cc1ccccc1) was determined as 404 nm.
On to `COc1ccccc1-c1nc2c3cccnc3c3ncccc3c2n1-c1ccccc1`, for which the absorption maximum (in Cc1ccccc1) is recorded as 363 nm.
`NC(=O)Cc1cccc2ccccc12`: the absorption maximum is 283 nm (in C1COCCO1); 282 nm (in CC#N); 282 nm (in CCO); 283 nm (in ClC(Cl)Cl); 280 nm (in O); 283 nm (in OCCO). For the setting “in [2H]O[2H]”, this compound returned an absorption maximum of 280 nm.
Regarding `c1ccc2c(c1)-c1ccccc1C21c2cc(-c3ccc4ccc5cccc6ccc3c4c56)ccc2-c2ccc(-c3ccc4ccc5cccc6ccc3c4c56)cc21`, where the note is “in ClC(Cl)Cl”, the absorption maximum was determined as 364 nm.
With `Cc1ccc(C2=C3C=CC4=[N+]3[B-](F)(F)n3c2ccc3-c2ccc([nH]2)/C(c2ccc(C)cc2)=c2/cc/c(o2)=C(\c2ccc(C)cc2)c2ccc4[nH]2)cc1`, for the setting “in ClC(Cl)Cl”, the absorption maximum came to 703 nm.
Turning to `CCOC(=O)c1c2c3c(ccc(Cl)c3c3cc4c(cc13)[Si](C)(C)O[Si]4(C)C)N(C)C2=O`, the absorption maximum (in CC#N) turned out to be 378 nm.
In the case of `CCCCCCCCCCCCN1C(=O)c2c(c3ccc4cc(-c5ccc(Cl)cc5)c(OC)cc4c3c3c2ccc2cc(-c4ccc(Cl)cc4)c(OC)cc23)C1=O`, the absorption maximum (in ClCCl) is on record as 430 nm.
Regarding `O=C1c2ccccc2-c2c(-c3ccc([N+](=O)[O-])cc3)c(-c3ccc([N+](=O)[O-])cc3)c(-c3ccccc3)c3cccc1c23`, the absorption maximum (in CC#N) came to 396 nm and the absorption maximum (in CO) was 400 nm.
Turning to `Cc1c(C)n2c(COC(=O)c3ccc(F)cc3)c(C)c(=O)n2c1=O`, the absorption maximum (in CCO) is 375 nm.
The compound `CCCCCCCCCCCCOc1cc2c3cc(OCCCCCCCCCCCC)c(OCCCCCCCCCCCC)cc3c3c(cc(OCCCCCCCCCCCC)c4nc5cc(C#Cc6ccc(OCCCC)cc6)c(C#Cc6ccc(OCCCC)cc6)cc5nc43)c2cc1OCCCCCCCCCCCC` returned an absorption maximum (in ClC(Cl)Cl) of 485 nm.
As for `CC(C)(C)NC(=O)c1ccc(Br)c2ccc3c4ccccc4c4ccccc4c3c12`, the absorption maximum (in ClCCl) came to 343 nm.
As to `c1ccc(N(c2ccccc2)c2ccc(-c3nc4ccccc4n3-c3ccccc3)cc2)cc1`, the absorption maximum (in CC#N) is 339 nm.
Regarding `Cc1ccc(C2=Cc3ccc4ccccc4[n+]3[B-](F)(F)O2)cc1`, the absorption maximum (in ClC(Cl)Cl) is given as 432 nm.
Take `CC(C)(C)[Si](C)(C)c1ccc([Si](C)(C)C(C)(C)C)c2ccccc12`: for the setting “in C1CCCCC1”, the absorption maximum is 302 nm.
Take `CN(C)c1ccc(-c2nc3nc4ccccc4nc3n2-c2ccccc2)cc1`: where the note is “in CC#N”, the absorption maximum was determined as 411 nm.
In turn, `F[B-]12OC(c3ccccc3)=Nc3cccc([n+]31)N=C(c1ccccc1)O2` had an absorption maximum (in ClCCl) of 394 nm.
In the case of `CCCCCCCCCCCCOc1ccc(C#Cc2ccc(C#Cc3ccc(OCCCCCCCCCCCC)c(OCCCCCCCCCCCC)c3)c3nc4c5ccccc5c5ccccc5c4nc23)cc1OCCCCCCCCCCCC`, the absorption maximum was 461 nm (in C1CCOC1), 461 nm (in Cc1ccccc1) and 461 nm (in ClCCl).
In turn, `c1ccc(-c2nnc(-c3ccc(-n4c5ccccc5c5ccccc54)cc3)o2)cc1` had an absorption maximum (in Cc1ccccc1) of 340 nm.
On to `CCOC(=O)c1c(C=Cc2ccccc2)oc(NC2CCCCC2)c1C(=O)OCC`, for which, under “in CC#N”, the absorption maximum came out at 384 nm.
Take `Cc1cc(-c2nc(-c3ccccc3)nc(-c3ccccc3)n2)c(C)cc1-c1ccc2c(c1)C1(c3ccccc3-c3ccccc31)c1ccccc1N2c1ccccc1`: the absorption maximum (in c1cc(-c2cccc(-n3c4ccccc4c4ccccc43)c2)cc(-n2c3ccccc3c3ccccc32)c1) came out at 363.44 nm.
Regarding `CCCCCCCCN(CCCCCCCC)c1ccc(/C=C/c2ccc(C#Cc3ccc(-c4ccc(C#Cc5ccc(/C=C/c6ccc(N(CCCCCCCC)CCCCCCCC)cc6)cc5)cc4)cc3)cc2)cc1`, under “in Cc1ccccc1”, the absorption maximum is listed as 406 nm.
The compound `CCOC(=O)c1c(-c2cc3cc4c(cc3oc2=O)OC(C)(C)CC4)nn(-c2ccccc2)c1C(=O)OCC` gave an absorption maximum (in ClCCl) of 348 nm.
As for `O=c1ccc2ccccc2o1`, the absorption maximum (in O) is given as 306 nm.
As to `CCCCN1/C(=C/C=C/C2=[N+](C)c3ccccc3C2(C)C)Oc2ccccc21`, under “in CS(C)=O”, the absorption maximum is 516 nm.
Turning to `COc1cc2c3c4c(c5ccc(C(C)(C)C)cc5c5cc(C(C)(C)C)cc(c2c(OC)c1OC)c45)=[N+]1C3=Nc2c3c4cc(OC)c(OC)c(OC)c4c4cc(C(C)(C)C)cc5c6cc(C(C)(C)C)ccc6c(c3c54)n2[B-]1(F)F`, the absorption maximum (in Cc1ccccc1) is recorded as 826 nm.
In turn, `C(=C\c1ccc(-c2nnc(-c3ccccc3)o2)cc1)/c1ccc(-c2nnc(-c3ccccc3)o2)cc1` yielded an absorption maximum (in CN(C)C=O) of 347 nm.
In the case of `COc1cc(/C=C/c2cc(OC)c(-c3nc(-c4ccccc4)c(-c4ccccc4)[nH]3)cc2OC)c(OC)cc1/C=C/c1cc(OC)c(-c2nc(-c3ccccc3)c(-c3ccccc3)[nH]2)cc1OC`, the absorption maximum by setting is: (in C1CCOC1) 444 nm; (in CC#N) 441 nm; (in Cc1ccccc1) 447 nm.
Compound `COc1cc(/C=C/c2ccccc2)cc(OC)c1` yielded an absorption maximum (in CC#N) of 306 nm.
Consider `COc1cc(OC)cc(-c2ccc(-c3ccc(C#N)s3)s2)c1`, for which the absorption maximum runs as follows: (in C1CCCCC1) 360 nm; (in C1COCCO1) 366 nm; (in CC#N) 364 nm; (in CC(C)O) 365 nm; (in CCCCO) 367 nm; (in CCO) 365 nm. The compound further showed an absorption maximum (in CCOC(C)=O) of 365 nm; an absorption maximum (in CN(C)C=O) of 370 nm; an absorption maximum (in CO) of 364 nm; an absorption maximum (in CS(C)=O) of 372 nm; an absorption maximum (in Cc1ccccc1) of 366 nm; an absorption maximum (in ClC(Cl)Cl) of 367 nm. Besides, the absorption maximum reads like this: (in ClCCl) 366 nm; (in O) 337 nm.
In turn, `Cc1cccc(C2=Cc3c4ccccc4c4ccccc4[n+]3[B-](F)(F)O2)c1` yielded an absorption maximum (in ClC(Cl)Cl) of 434 nm.
